Source: patent publication US8569301B2, “6, 6-dioxo-6-thia-1, 4-diaza-naphthalenes as herbicides” (Syngenta Limited, priority 2009, dated 2013)

What was measured:
Assay type in all cases: in vivo
[1] = tested on: crop and representative weed species; assay: Example B2 herbicidal action post-emergence (Table B2); conditions: application post-emergence, rate 500 g/ha, evaluated after 15 days, score 10 to 0
Protocol: Seeds of crop and representative weed species were sown in standard soil in pots. After cultivation for 14 days under controlled conditions in a glasshouse (at 22/16° C., day/night; 16 hours light; 65% humidity), the plants were sprayed. The spray solution was prepared by dissolving the technical active ingredient in acetone containing 10.56 wt % Emulsogen EL, 42.22 wt % N-methylpyrrolidone and 2.22 wt % DPG-monoethyl ether to give a 5% stock solution. This was then diluted with water containing 0.2% (v/v) of the adjuvant X-77 to give the desired treatment concentration.
The test plants were then grown on under controlled conditions in a glasshouse (at 22/16° C., day/night; 16 hours light; 65% humidity) and watered twice daily. After 15 days the test was evaluated and the assessed scores, from 10 to 0, are tabulated in Table B2 (10=total damage to plant; 0=no damage to plant).

IPOHE = assay: Example B1 herbicidal action post-emergence, IPOHE; conditions: sprayed after 8 days cultivation, evaluated after 13 days, scores from 10 to 0 (10=total damage to plant; 0=no damage to plant)
Protocol: (§1) Seeds of a variety of test species were sown in standard soil in pots. After 8 days cultivation (post-emergence) under controlled conditions in a glasshouse (at 24/16° C., day/night; 14 hours light; 65% humidity), the plants were sprayed with an aqueous spray solution derived from the formulation of the technical active ingredient in acetone/water (50:50) solution containing 0.5% Tween 20 (polyoxyethelyene sorbitan monolaurate, CAS RN 9005-64-5). The test plants were then grown under controlled conditions in a glasshouse (at 24/16° C., day/night; 14 hours light; 65% humidity) and watered twice daily. After 13 days, the test was evaluated and the assessed scores, from 10 to 0, are tabulated in Table B1 (10=total damage to plant; 0=no damage to plant).

ECHCG = assay: Example B1 herbicidal action post-emergence, ECHCG; conditions: sprayed after 8 days cultivation, evaluated after 13 days, scores from 10 to 0 (10=total damage to plant; 0=no damage to plant)
Protocol: as §1

SOLNI = assay: Example B1 herbicidal action post-emergence, SOLNI; conditions: sprayed after 8 days cultivation, evaluated after 13 days, scores from 10 to 0 (10=total damage to plant; 0=no damage to plant)
Protocol: as §1

AMARE = assay: Example B1 herbicidal action post-emergence, AMARE; conditions: sprayed after 8 days cultivation, evaluated after 13 days, scores from 10 to 0 (10=total damage to plant; 0=no damage to plant)
Protocol: as §1

SETFA = assay: Example B1 herbicidal action post-emergence, SETFA; conditions: sprayed after 8 days cultivation, evaluated after 13 days, scores from 10 to 0 (10=total damage to plant; 0=no damage to plant)
Protocol: as §1

Structure (SMILES) | herbicidal damage score AMARE (10=total damage to plant; 0=no damage to plant) ([1]; AMARE = Amaranthus retroflexus) | herbicidal damage score ECHCG (10=total damage to plant; 0=no damage to plant) ([1]; ECHCG = Echinochloa crus-galli) | herbicidal damage score IPOHE (10=total damage to plant; 0=no damage to plant) ([1]; IPOHE = Ipomea hederaceae) | herbicidal damage score SETFA (10=total damage to plant; 0=no damage to plant) ([1]; SETFA = Setaria faberi) | assessed score, application post-emergence, IPOHE (IPOHE; Rate 250 g/ha) | assessed score, application post-emergence, ECHCG (ECHCG; Rate 250 g/ha) | assessed score, application post-emergence, SOLNI (SOLNI; Rate 250 g/ha) | assessed score, application post-emergence, AMARE (AMARE; Rate 250 g/ha) | assessed score, application post-emergence, SETFA (SETFA; Rate 250 g/ha) | assessed score, application post-emergence, IPOHE (IPOHE; Rate 1000 g/ha) | assessed score, application post-emergence, ECHCG (ECHCG; Rate 1000 g/ha) | assessed score, application post-emergence, SOLNI (SOLNI; Rate 1000 g/ha) | assessed score, application post-emergence, AMARE (AMARE; Rate 1000 g/ha) | assessed score, application post-emergence, SETFA (SETFA; Rate 1000 g/ha)
C#CCC1(C)c2nccnc2C(O)=C(c2c(Cl)cccc2C(F)(F)F)S1(=O)=O (stereo not shown) [Compound F10, 7-(2-chloro-6-trifluoromethyl-phenyl)-5-methyl-6,6-dioxo-5-prop-2-ynyl-5,6-dihydro-6-thia-1,4-diaza-naphthalen-8-ol] | 8 | 7 | 9 | 8 | – | – | – | – | – | – | – | – | – | –
CCC1c2nccnc2C(O)=C(c2c(F)ccc(Br)c2Cl)S1(=O)=O (stereo not shown) [Compound E10] | – | – | – | – | 8 | 4 | 7 | 7 | 7 | – | – | – | – | –
CC#CCC1c2nccnc2C(O)=C(c2c(F)ccc(Br)c2Cl)S1(=O)=O (stereo not shown) [Compound E21] | – | – | – | – | – | – | – | – | – | 8 | 7 | 9 | 6 | 4
O=S1(=O)Cc2nccnc2C(O)=C1c1c(Cl)ccc(Cl)c1Cl [Compound C18] | – | – | – | – | – | – | – | – | – | 8 | 8 | 8 | 7 | 8
O=S1(=O)Cc2nccnc2C(O)=C1c1c(F)cccc1C(F)(F)F [Compound C6] | – | – | – | – | – | – | – | – | – | 0 | 1 | 3 | 4 | 2
Cc1cc(C)c(C2=C(O)c3nccnc3C(C)S2(=O)=O)c(C)c1 (stereo not shown) [Compound E19] | – | – | – | – | – | – | – | – | – | 7 | 5 | 8 | 3 | 5
O=S1(=O)Cc2nccnc2C(O)=C1c1cc(Cl)ccc1C(F)(F)F [Compound C7, 7-(5-chloro-2-trifluoromethyl-phenyl)-6,6-dioxo-5,6-dihydro-6-thia-1,4-diaza-naphthalen-8-ol] | – | – | – | – | – | – | – | – | – | 7 | 6 | 8 | 8 | 8
O=S1(=O)C(c2c(F)ccc(Br)c2Cl)=C(O)c2nccnc2C1CC(F)F (stereo not shown) [Compound E9] | – | – | – | – | – | – | – | – | – | 8 | 3 | 9 | 10 | 5
Cc1cc(C)c(C2=C(O)c3nccnc3C(C)(C)S2(=O)=O)c(C)c1 [Compound F1, 5,5-dimethyl-6,6-dioxo-7-(2,4,6-trimethyl-phenyl)-5,6-dihydro-6-thia-1,4-diaza-naphthalen-8-ol] | – | – | – | – | – | – | – | – | – | 8 | 8 | 10 | 10 | 8
Cc1cccc(F)c1C1=C(O)c2nccnc2CS1(=O)=O [Compound C4] | – | – | – | – | – | – | – | – | – | 2 | 3 | 4 | 7 | 5
O=S1(=O)Cc2nccnc2C(O)=C1c1cc(C(F)(F)F)ccc1Cl [Compound C2] | – | – | – | – | – | – | – | – | – | 0 | 0 | 0 | 0 | 0
O=S1(=O)Cc2nccnc2C(O)=C1c1c(Cl)cccc1Cl [Compound C19] | – | – | – | – | – | – | – | – | – | 8 | 7 | 9 | 7 | 8
O=S1(=O)Cc2nccnc2C(O)=C1c1ccccc1OC(F)F [Compound C9] | – | – | – | – | – | – | – | – | – | 1 | 3 | 4 | 6 | 7
CC1c2nccnc2C(O)=C(c2c(Cl)cccc2C(F)(F)F)S1(=O)=O (racemic) [Compound E3] | – | – | – | – | – | – | – | – | – | 8 | 8 | 8 | 9 | 8
O=S1(=O)C(c2c(F)ccc(Br)c2Cl)=C(O)c2nccnc2C12CCC2 [Compound F7] | – | – | – | – | – | – | – | – | – | 6 | 1 | 5 | 4 | 1
CC1(C)c2nccnc2C(O)=C(c2c(F)ccc(Br)c2Cl)S1(=O)=O [Compound F2] | – | – | – | – | – | – | – | – | – | 9 | 8 | 10 | 10 | 9
O=S1(=O)Cc2nccnc2C(O)=C1c1ccccc1I [Compound C14] | – | – | – | – | – | – | – | – | – | 8 | 7 | 7 | 8 | 7
COc1ccc(Cl)c(C2=C(O)c3nccnc3CS2(=O)=O)c1F [Compound C5] | – | – | – | – | – | – | – | – | – | 3 | 1 | 4 | 3 | 4
C#CCC1c2nccnc2C(O)=C(c2c(Cl)cccc2C(F)(F)F)S1(=O)=O (racemic) [Compound E2] | – | – | – | – | – | – | – | – | – | 8 | 8 | 8 | 10 | 8
O=S1(=O)Cc2nccnc2C(O)=C1c1ccccc1C(F)(F)F [Compound C11] | – | – | – | – | – | – | – | – | – | 5 | 5 | 7 | 7 | 7
CC1(C)c2nccnc2C(O)=C(c2c(Cl)cccc2C(F)(F)F)S1(=O)=O [Compound F9] | – | – | – | – | – | – | – | – | – | 9 | 8 | 8 | 9 | 8
O=S1(=O)Cc2nccnc2C(O)=C1c1cc(Cl)cc(C(F)(F)F)c1 [Compound C3] | – | – | – | – | – | – | – | – | – | 0 | 0 | 0 | 0 | 0
O=S1(=O)Cc2nccnc2C(O)=C1c1c(Cl)cccc1C(F)(F)F [Compound C13] | – | – | – | – | – | – | – | – | – | 8 | 8 | 2 | 8 | 8
CC1(C)c2nccnc2C(O)=C(c2cc(Cl)ccc2C(F)(F)F)S1(=O)=O [Compound F5] | – | – | – | – | – | – | – | – | – | 9 | 8 | 10 | 10 | 6
O=S1(=O)Cc2nccnc2C(O)=C1c1ccc(Br)cc1C(F)(F)F [Compound C22] | – | – | – | – | – | – | – | – | – | 7 | 5 | 9 | 10 | 5
